Among the data in patent publication US20180311342A1, “IMMUNOSTIMULATING AGENT” (AJINOMOTO CO., INC., priority 2017, published 2018) are adjuvant activity values, retold here.

The assay concerns anti-OVA-specific IgG1 and IgG2a subclass antibody production. In words: Evaluation test of adjuvant activity (overall conclusion from anti-OVA IgG1 and IgG2a production). To be noted: compound 0.256 μmol in 5% αCD-added saline with OVA 5 μg, dorsal-subcutaneous. Type of assay: in vivo, BALB/c mice. Put shortly:
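Female BALB/c mice (8 weeks, N=6) immunized dorsal-subcutaneously with OVA 5 μg alone or plus 0.256 μmol compound in 5% α-cyclodextrin saline (Addavax™ as positive control), boosted at 2 weeks. Serum taken 2 weeks after boost; anti-OVA IgG1 and IgG2a quantified by OVA-coated ELISA against standard curves (OD 450 nm).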

Where [1] appears, read: conclusion from IgG1/IgG2a after primary immunization.
Where [2] appears, read: conclusion from IgG1/IgG2a after secondary immunization.

For `CCCCCCCCCCCCCCCCNC(=O)N[C@@H](CCCNC(=N)N)C(=O)NCCCCCCCC.Cl` [SZ210, (2S)-5-guanidino-2-(hexadecylcarbamoylamino)-N-octyl-pentanamide hydrochloride], the adjuvant activity entry runs as follows: under setting [1], “have an adjuvant activity”; under setting [2], “have an adjuvant activity”.

`CCCCCCCCCCCCCCCCCCNC(=O)N[C@@H](CCCNC(=N)N)C(=O)NCCCCCCCCCCCC.Cl` [SZ211, (2S)—N-dodecyl-5-guanidino-2-(octadecylcarbamoylamino)pentanamide hydrochloride]: the adjuvant activity result under setting [1] was “have an adjuvant activity” and the adjuvant activity entry under setting [2] was “have an adjuvant activity”.

Consider `CCCCCCCCCCCCNC(=O)N[C@@H](CCCNC(=N)N)C(=O)NCCCCCCCCCCCC.Cl` [SZ212, (2S)—N-dodecyl-2-(dodecylcarbamoylamino)-5-guanidino-pentanamide hydrochloride], for which the adjuvant activity entry is, setting by setting: under setting [1], “have an adjuvant activity”; under setting [2], “have an adjuvant activity”.

In the case of `CCCCCCCCCCCCCCCCNC(=O)N[C@@H](CCCCN)C(=O)NCCCCCCCC.Cl` [SZ213, (2S)-6-amino-2-(hexadecylcarbamoylamino)-N-octyl-hexanamide hydrochloride], the adjuvant activity entry runs as follows: under setting [1], “have an adjuvant activity”; under setting [2], “have an adjuvant activity”.

Take `CCCCCCCCCCCCCCCCNC(=O)N[C@@H](CCCCN)C(=O)NCCCCCCCCCCCC.Cl` [SZ214, (2S)-6-amino-N-dodecyl-2-(hexadecylcarbamoylamino)hexanamide hydrochloride]: the adjuvant activity entry by setting is: under setting [1], “have an adjuvant activity”; under setting [2], “have an adjuvant activity”.

Take `CCCCCCCCCCCCCCCCOC(=O)N[C@@H](CCCNC(=N)N)C(=O)NCCCCCCCC.Cl` [SZ215, hexadecyl N-[(1S)-4-guanidino-1-(octylcarbamoyl)butyl]carbamate hydrochloride]: the adjuvant activity result is reported as “have an adjuvant activity” under setting [1] and “have an adjuvant activity” under setting [2].
